The results in this text go back to ChEMBL document CHEMBL5257136, “PROTAC Targeted Degradation of IRAK-4 as Potential Treatment in Cancer” (ACS Med Chem Lett, 2023).

In general, Emax refers to the maximal effect, on the per cent scale that the assay sets. By IC50 is commonly meant the concentration that inhibits the measured activity by half.

Common to all, as to type: cell-based
In experiment [1] the target is T1, Protein cereblon/Interleukin-1 receptor-associated kinase 4 (Homo sapiens) (UniProt Q9NWZ3+Q96SW2). The experiment is described as follows: Binding affinity to CRBN/IRAK4 in human PBMC cells assessed as inhibition of LPS-stimulated IL-6 production by measuring maximal efficacy incubated for 24 hrs by MSD analysis relative to control.
Experiment [2] concerns the target T2, Protein cereblon/Interleukin-1 receptor-associated kinase 4 (Homo sapiens, UniProt Q96SW2+Q9NWZ3). The experiment is described as follows: Binding affinity to CRBN/IRAK4 in human PBMC cells assessed as inhibition of LPS-stimulated IL-6 production incubated for 24 hrs by MSD analysis.
For experiment [3], the target named is T2, Protein cereblon/Interleukin-1 receptor-associated kinase 4. The experiment is described as follows: Binding affinity to CRBN/IRAK4 in human PBMC cells assessed as inhibition of R848-stimulated IL-6 production incubated for 24 hrs by MSD analysis.
Experiment [4] addresses T1, Protein cereblon/Interleukin-1 receptor-associated kinase 4 (Homo sapiens). The experiment is described as follows: Binding affinity to CRBN/IRAK4 in human PBMC cells assessed as inhibition of R848-stimulated IL-6 production by measuring maximal efficacy incubated for 24 hrs by MSD analysis relative to control.

T1 sequence (Q96SW2 whole entry, looked up): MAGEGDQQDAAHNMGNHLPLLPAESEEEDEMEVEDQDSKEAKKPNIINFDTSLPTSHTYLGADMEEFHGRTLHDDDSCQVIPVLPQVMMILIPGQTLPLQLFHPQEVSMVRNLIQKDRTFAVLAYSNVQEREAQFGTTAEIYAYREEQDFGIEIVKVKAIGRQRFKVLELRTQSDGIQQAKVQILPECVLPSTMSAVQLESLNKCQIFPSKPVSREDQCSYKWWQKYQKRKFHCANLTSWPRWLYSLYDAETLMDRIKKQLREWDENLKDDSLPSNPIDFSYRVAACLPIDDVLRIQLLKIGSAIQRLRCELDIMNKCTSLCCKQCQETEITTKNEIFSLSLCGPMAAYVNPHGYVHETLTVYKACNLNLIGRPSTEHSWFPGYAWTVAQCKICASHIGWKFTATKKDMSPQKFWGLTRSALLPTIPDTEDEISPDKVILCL
T1 sequence (Q9NWZ3 whole entry, looked up): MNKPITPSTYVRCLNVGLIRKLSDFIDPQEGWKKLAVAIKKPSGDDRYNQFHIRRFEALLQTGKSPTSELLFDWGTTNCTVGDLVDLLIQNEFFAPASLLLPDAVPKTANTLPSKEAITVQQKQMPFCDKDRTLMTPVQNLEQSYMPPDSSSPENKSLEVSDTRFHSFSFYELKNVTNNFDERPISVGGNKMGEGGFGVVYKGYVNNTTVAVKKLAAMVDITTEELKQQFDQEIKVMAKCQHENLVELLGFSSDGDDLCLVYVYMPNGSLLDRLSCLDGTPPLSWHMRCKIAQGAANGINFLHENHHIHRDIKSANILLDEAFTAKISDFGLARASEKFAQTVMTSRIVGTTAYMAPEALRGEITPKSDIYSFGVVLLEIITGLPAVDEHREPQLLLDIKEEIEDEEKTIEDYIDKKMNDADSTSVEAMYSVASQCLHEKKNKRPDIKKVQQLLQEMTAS
T2 sequence (Q9NWZ3 whole entry): as the sequence (Q9NWZ3 whole entry, looked up) above
T2 sequence (Q96SW2 whole entry): as the sequence (Q96SW2 whole entry, looked up) above

As to `O=C1CCC(N2Cc3c(ccc(N4CCC(CN5CCC(n6cc7cc(NC(=O)c8cnn9cccnc89)c(N8CCN(CC(F)F)CC8)cc7n6)CC5)CC4)c3F)C2=O)C(=O)N1` (stereo not given), the maximal response (Emax) in experiment [1] was 80%; in experiment [4] it was more than 90%. The half-maximal inhibitory concentration (IC50) in experiment [2] and in experiment [3] was less than 10 nM in each case.

With `CC(C)Oc1cc2c(cc1NC(=O)c1cnn3cccnc13)CN(C1CCN(CC3CCN(c4ccc5c(c4)C(=O)N(C4CCC(=O)NC4=O)C5=O)CC3)CC1)C2=O` (stereo not given), the Emax in experiment [1] is 80%; in experiment [4], more than 90%. Further, the IC50 in experiment [2] and in experiment [3] was less than 10 nM in each case.

In the case of `O=C1CCC(N2Cc3ccc(N4CCC(CN5CCC(N6Cc7cc(NC(=O)c8cnn9cccnc89)c(N8CCC(N9CCC9)CC8)cc7C6=O)CC5)CC4)cc3C2=O)C(=O)N1` (stereo not given), the Emax in experiment [1] and in experiment [4] was more than 90% each time. The IC50 in experiment [2] and in experiment [3] was less than 10 nM in each case.

With `O=C1CCC(N2Cc3ccc(N4CC(F)(CN5CCC(N6Cc7cc(NC(=O)c8cnn9cccnc89)c(N8CCC(N9CCC9)CC8)cc7C6=O)CC5)C4)cc3C2=O)C(=O)N1` (stereo not given), the figures for the Emax in experiment [1] and in experiment [4] were 80% and more than 90%, respectively. For the same molecule, the IC50 in experiment [2] and in experiment [3] was less than 10 nM each time.

With `O=C1CCC(N2Cc3ccc(N4CCC(CN5CCC(n6cc7cc(NC(=O)c8cnn9cccnc89)c(OCC8CC8)cc7n6)CC5)CC4)cc3C2=O)C(=O)N1` (stereo not given), the Emax in experiment [1] is 80%; in experiment [4] it was more than 90%. Further, the IC50 in experiment [2] and in experiment [3] was less than 10 nM each time.

`CC(C)Oc1cc2c(cc1NC(=O)c1cnn3cccnc13)CN(C1CCN(CC3(F)CN(c4ccc5c(c4F)CN(C4CCC(=O)NC4=O)C5=O)C3)CC1)C2=O` (stereo not given): the Emax in experiment [1] and in experiment [4] was more than 90% in each case. Besides, the results for the 50% inhibitory concentration (IC50) in experiment [2] and in experiment [3] were not below 10 nM and not below 50 nM, respectively.

As for `O=C1CCC(N2Cc3cc(N4CCC(CN5CCC(N6Cc7cc(NC(=O)c8cnn9cccnc89)c(N8CCC(N9CCC9)CC8)cc7C6=O)CC5)CC4)ccc3C2=O)C(=O)N1` (stereo not given), the Emax in experiment [1] and in experiment [4] was more than 90% in each case. For the same molecule, the IC50 in experiment [2] and in experiment [3] was less than 10 nM each time.

In the case of `CC(C)Oc1cc2c(cc1NC(=O)c1cnn3cccnc13)CN(C1CCN(C(C)(C)C3CN(c4ccc5c(c4)C(=O)N(C4CCC(=O)NC4=O)C5=O)C3)CC1)C2=O` (stereo not given), the Emax in experiment [1] and in experiment [4] was more than 90% throughout. In addition, the IC50 in experiment [2] and in experiment [3] was not below 10 nM each time.

`O=C1CCC(N2Cc3cc(N4CCC(CN5CCC(n6cc7cc(NC(=O)c8cnn9cccnc89)c(OCC(F)F)cc7n6)CC5)CC4)ccc3C2=O)C(=O)N1` (stereo not given): the Emax was 70% in experiment [1] and more than 90% in experiment [4]. Also, the IC50 in experiment [2] is not below 10 nM; in experiment [3], less than 10 nM.

For `O=C1CCC(N2C(=O)c3ccc(N4CCC(CN5CCC(N6Cc7cc(NC(=O)c8cnn9cccnc89)c(N8CCN(CC(F)F)CC8)cc7C6=O)CC5)CC4)cc3C2=O)C(=O)N1` (stereo not given), the Emax in experiment [1] and in experiment [4] was 80% in each case. For the same molecule, the IC50 in experiment [2] and in experiment [3] was not below 10 nM throughout.
